Columns and labels:
[1] = target: SENP7 (Homo sapiens (Human), UniProt Q9BQF6); assay: DUB-Glo bioluminescent assay, SENP7; type: biochemical; conditions: DUB-Glo substrate
Protocol: (§1) In 96-well plates, SENPs (50-200 nM) were pre-treated with increasing concentrations of each compound, after which DUB-Glo (40 μM final concentration; Promega, Madison, Wis.) was added as substrate. Experiments were performed in triplicate. The amount of cleaved product is proportional to the relative light unit (RLU), which is bioluminescence produced by luciferase catalyzed reaction of luciferin that was produced by SENP cleavage of DUB-Glo.
(§2) To determine whether other SENPs can be inhibited by this family of inhibitors, a distant SENP member, SENP7, was tested in parallel with SENP1 and SENP2 using a pentapeptide substrate that contained the Gly-Gly motif and luciferin, known as DUB-Glo (Promega, Madison, Wis.). Cleavage of luciferin by a SENP can be detected by a coupled bioluminescent assay using luciferase. The bioluminescent reporter was chosen instead of a fluorescent reporter to avoid interference by the compounds during detection.
DUB-Glo Assay. The luciferase substrate assay (DUB-Glo, Promega, Madison, Wis.) was performed according to the manufacturer's instructions. Briefly, SENPs (final concentration 50-100 nM) in Tris buffer (50 mM Tris, pH 8.0, 100 mM NaCl, 10 mM DTT) were pre-incubated (10 min, room temperature) with increasing concentrations of inhibitor (0-60 μM final concentration) followed by addition of the luciferase substrate. Luciferase output was recorded 30 min after addition of the luciferase substrate. Values are the averages of experiments performed in triplicate.

[2] = target: T1, SENP2 (Homo sapiens (Human), UniProt Q9HC62); assay: SUMO cleavage assay (gel-based), SENP2, SUMO-2 precursor YSE substrate; type: biochemical; conditions: cleavage of SUMO-2 precursor (YSE), read-out: IC50 (μM)-SUMO2 SENP2
[3] = target: T1, SENP2; assay: DUB-Glo bioluminescent assay, SENP2; type: biochemical; conditions: DUB-Glo substrate
Protocol: as §1, §2
(§3) DUB-Glo Assay. The luciferase substrate assay (DUB-Glo, Promega, Madison, Wis.) was performed according to the manufacturer's instructions. […] Luciferase output was recorded 30 min after addition of the luciferase substrate. […]

[4] = target: T2, SENP1 (Homo sapiens (Human), UniProt Q9P0U3); assay: DUB-Glo bioluminescent assay, SENP1; type: biochemical; conditions: DUB-Glo substrate
Protocol: as §1, §2, §3

[5] = target: T2, SENP1; assay: SUMO cleavage assay (gel-based), SENP1, SUMO-1 precursor YSE substrate; type: biochemical; conditions: cleavage of SUMO-1 precursor (YSE), read-out: IC50 (μM)-SUMO1 SENP1
[6] = target: T1, SENP2; assay: SUMO cleavage assay (gel-based), SENP2, SUMO-1 precursor YSE substrate; type: biochemical; conditions: cleavage of SUMO-1 precursor (YSE), read-out: IC50 (μM)-SUMO1 SENP2
[7] = target: T2, SENP1; assay: SUMO cleavage assay (gel-based), SENP1, SUMO-2 precursor YSE substrate; type: biochemical
[8] = test system: HeLa cells; assay: Cellular SENP inhibition: SUMOylated proteins in HeLa cells by Western blot; conditions: increasing concentrations, 48 hours

T1 sequence (Q9HC62 364-589): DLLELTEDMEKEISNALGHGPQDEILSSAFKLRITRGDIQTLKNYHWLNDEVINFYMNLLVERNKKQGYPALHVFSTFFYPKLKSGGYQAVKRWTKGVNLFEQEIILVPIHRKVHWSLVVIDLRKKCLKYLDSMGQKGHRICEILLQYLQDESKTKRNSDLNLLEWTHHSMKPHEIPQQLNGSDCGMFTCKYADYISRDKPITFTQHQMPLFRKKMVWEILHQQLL
T2 sequence (Q9P0U3 419-644): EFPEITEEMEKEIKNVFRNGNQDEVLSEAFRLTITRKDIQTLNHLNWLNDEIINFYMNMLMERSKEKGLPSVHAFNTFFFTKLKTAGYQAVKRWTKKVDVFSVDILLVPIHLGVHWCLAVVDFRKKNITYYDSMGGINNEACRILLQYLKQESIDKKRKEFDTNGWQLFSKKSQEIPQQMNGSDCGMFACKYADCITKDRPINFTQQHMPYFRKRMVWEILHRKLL
SENP7, sequence (Q9BQF6 760-1050): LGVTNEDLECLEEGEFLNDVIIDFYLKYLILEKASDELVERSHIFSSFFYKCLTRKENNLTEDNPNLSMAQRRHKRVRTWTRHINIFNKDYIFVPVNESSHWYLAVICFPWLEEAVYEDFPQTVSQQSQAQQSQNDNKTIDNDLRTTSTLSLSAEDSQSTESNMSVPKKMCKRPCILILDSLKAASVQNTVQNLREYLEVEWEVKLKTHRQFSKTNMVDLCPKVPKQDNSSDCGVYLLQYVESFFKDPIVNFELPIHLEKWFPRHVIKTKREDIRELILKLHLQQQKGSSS

**Q.** With `Nc1c(/N=N/c2ccccc2)cc(S(=O)(=O)O)c2ccccc12` [SPI-08] as the molecule, how does the IC50 [1] read?
**A.** Its IC50 is 2.8 ± 1.6 µM.

**Q.** Which IC50 [1] does the source give for `Cc1cc(N)ccc1/N=N/c1cc(S(=O)(=O)O)c2cccc(S(=O)(=O)O)c2c1.[Na+].[Na+]` [SPI-07] here?
**A.** The IC50 was 1.9 ± 2.2 µM.

**Q.** And the IC50 [2]?
**A.** The IC50 was 28.1 ± 9.2 µM.

**Q.** What about the IC50 [3] of the same molecule?
**A.** The IC50 was over 60 µM.

**Q.** What about the IC50 [4] of the same molecule?
**A.** Its IC50 is over 60 µM.

**Q.** And the IC50 [5]?
**A.** Its IC50 is over 60 µM.

**Q.** What about the IC50 [6] of the same molecule?
**A.** The IC50 was over 60 µM.

**Q.** And the IC50 ([7]; cleavage of SUMO-2 precursor (YSE), gel-based, read-out: IC50 (μM)-SUMO2 SENP1)?
**A.** The IC50 was 17.5 ± 4.9 µM.

**Q.** And the “potency for inhibiting SENP1 compared with SENP2” value ([7]; cleavage of the SUMO-2 precursor)?
**A.** The value was “more potent for inhibiting SENP1 than SENP2”.

**Q.** What does the source list for `Nc1ccc2ccccc2c1/N=N/c1ccc(/C=C/c2ccc(/N=N/c3c(N)ccc4ccccc34)cc2S(=O)(=O)O)c(S(=O)(=O)O)c1` [SPI-01]?
**A.** accumulation of SUMO-1 conjugates [8]: less significant effects on the accumulation of SUMO-1 conjugates; accumulation of SUMO-2/3 conjugates [8]: SUMO-2/3 conjugates accumulated in cells

**Q.** With `Nc1ccc2cc(S(=O)(=O)O)cc(S(=O)(=O)O)c2c1/N=N/c1ccc(S(=O)(=O)O)cc1` [SPI-09] as the molecule, how does the IC50 [1] read?
**A.** The IC50 was 1.9 ± 2.1 µM.

— patent US9791447B2, “Methods of identifying SENP1 inhibitors” (City of Hope, priority 2013, dated 2017)
